Assays:
Assay in all cases: MIC, microdilution, clinical strains
Type in all cases: cell-based
[1] = system: clinical strains of Acinetobacter baumannii; set-up: unit: μg/ml; details: 0.02% BSA, 0.2% acetic acid
Description: (§1) Minimum inhibition concetrations (MICs) were determined against Escherichia coli (ATCC 25922), Staphylococcus aureus (ATCC 25923), Klebsiella pneumoniae (ATCC 10031) and Pseudomonas aeruginosa (ATCC 27853). Also clinical strains of E. coli, K. pneumoniae, E. cloacae, P. aeruginosa, Serratia marcescens, Proteus mirabilis, S. pneumoniae, Acinetobacter baumannii, A. johnsonii and S. aureus were used for MICs assays. Additionally, clinical strains of yeast including Candida albicans, C. glabrata, C. parapsilosis and C. quillermondiae were used. The susceptibility of these microorganisms to Chain peptides were determined using micro broth dilution assay. Colonies of the respective microorganism from Muller Hinton (MH) agar plates incubated overnight were suspended in MH broth media and final concentration of microorganism was adjusted to 5.0×10^5 cfu/ml. An aliquot of 10 μl of each Chain peptide, or gentamicin, tetracycline as reference antibiotics were added in differing concentrations along with 90 μl of bacterial suspension to 96 well polypropylene plates and incubated at 37° C. for 20 to 24 hours. Concentrations of Chain peptides and reference antibiotics ranged from 0.125 to 128 μg/ml and the MICs were recorded as the lowest concentration with no visual growth of bacteria. Similarly, antifungal MICs were tested in Potato dextrose broth.
(§2) Clinical strains of yeasts including Candida albicans, C. glabrata, C. parapsilosis and C. quillermondiae were also tested with the 12 Chain peptides. The minimum inhibitory concentration (MICs) varied between these peptides and are presented in Tables 4a, 4b, 4c and 5a, 5b, 5c. Peptides Chain 105, 201 and 308 are broad spectrum antimicrobials with MICs between 0.5-32 μg/ml against all the bacteria and yeasts tested, except Serratia marcescens and Proteus mirabilis, against which the MICs were between 64-128 μg/ml. Peptide Chain 306 has narrow spectrum activity against E. coli at 1 μg/ml and for the rest of the bacterial strains at >32 μg/ml (FIG. 10c).

[2] = system: clinical strains of A. johnsonii; set-up: unit: μg/ml; details: Acinetobacter johnsonii strain 1, Muller Hinton broth-cation adjusted, 0.02% BSA, 0.2% acetic acid
Description: as §1, §2

[3] = system: clinical strains of E. cloacae; details: 0.02% BSA, 0.2% acetic acid
Method in brief: (§3)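 MIC = lowest peptide concentration without visual growth after 20–24 h at 37° C. Range 0.125–128 μg/ml, inoculum 5.0×10^5 cfu/ml, microdilution format. Antifungal tests used potato dextrose broth; bacterial tests used MH broth.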

[4] = system: clinical strains of S. pneumoniae; details: 0.02% BSA, 0.2% acetic acid
Method in brief: as §3

[5] = system: clinical strains of K. pneumoniae; details: 0.02% BSA, 0.2% acetic acid
Method in brief: as §3

[6] = system: clinical strains of Proteus mirabilis; details: 0.02% BSA, 0.2% acetic acid
Method in brief: as §3

[7] = system: clinical strains of Serratia marcescens; details: 0.02% BSA, 0.2% acetic acid
Method in brief: as §3

[8] = system: clinical strains of E. coli; details: microdilution, Muller Hinton broth-cation adjusted, 0.02% BSA, 0.2% acetic acid
Method in brief: as §3

[9] = system: clinical strains of S. aureus; details: 0.02% BSA, 0.2% acetic acid
Method in brief: as §3

[10] = system: clinical strains of P. aeruginosa; details: 0.02% BSA, 0.2% acetic acid
Method in brief: as §3

Work on Gentamicin [reference compound] yielded a Minimum inhibitory concentration ([1]; Acinetobacter baumannii strain 1, Muller Hinton broth-cation adjusted) of 0.5, a Minimum inhibitory concentration ([1]; Acinetobacter baumannii strain 2, Muller Hinton broth-cation adjusted) of 0.25 and a Minimum inhibitory concentration ([1]; Acinetobacter baumannii strain 3, Muller Hinton broth-cation adjusted) of 0.5. The Minimum inhibitory concentration ([1]; Acinetobacter baumannii strain 4, Muller Hinton broth-cation adjusted) was 0.5, the Minimum inhibitory concentration ([1]; Acinetobacter baumannii strain 5, Muller Hinton broth-cation adjusted) was 0.25 and the Minimum inhibitory concentration [2] was 0.25. It also gave a Minimum inhibitory concentration ([3]; Enterobacter cloacae strain 1, Muller Hinton broth-cation adjusted) of 0.25, a Minimum inhibitory concentration ([3]; Enterobacter cloacae strain 2, Muller Hinton broth-cation adjusted) of 0.25 and a Minimum inhibitory concentration ([3]; Enterobacter cloacae strain 3, Muller Hinton broth-cation adjusted) of 0.25. For the same substance, the Minimum inhibitory concentration ([3]; Enterobacter cloacae strain 4, Muller Hinton broth-cation adjusted) was 0.25, the Minimum inhibitory concentration ([3]; Enterobacter cloacae strain 5, Muller Hinton broth-cation adjusted) was 0.25 and the Minimum inhibitory concentration ([4]; Streptococcus pneumoniae strain 1, Muller Hinton broth-cation adjusted) was 2. It also gave a Minimum inhibitory concentration ([4]; Streptococcus pneumoniae strain 2, Muller Hinton broth-cation adjusted) of 2, a Minimum inhibitory concentration ([4]; Streptococcus pneumoniae strain 3, Muller Hinton broth-cation adjusted) of 2 and a Minimum inhibitory concentration ([4]; Streptococcus pneumoniae strain 4, Muller Hinton broth-cation adjusted) of 2. The Minimum inhibitory concentration ([4]; Streptococcus pneumoniae strain 5, Muller Hinton broth-cation adjusted) was 1, the Minimum inhibitory concentration ([5]; Klebsiella pneumoniae strain 1, Muller Hinton broth-cation adjusted) was 2 and the Minimum inhibitory concentration ([5]; Klebsiella pneumoniae strain 2, Muller Hinton broth-cation adjusted) was 0.25. It also gave a Minimum inhibitory concentration ([5]; Klebsiella pneumoniae strain 3, Muller Hinton broth-cation adjusted) of 2, a Minimum inhibitory concentration ([5]; Klebsiella pneumoniae strain 4, Muller Hinton broth-cation adjusted) of 2 and a Minimum inhibitory concentration ([5]; Klebsiella pneumoniae strain 5, Muller Hinton broth-cation adjusted) of 4. The Minimum inhibitory concentration ([6]; Proteus mirabilis strain 1, Muller Hinton broth-cation adjusted) was 2, the Minimum inhibitory concentration ([6]; Proteus mirabilis strain 2, Muller Hinton broth-cation adjusted) was 2 and the Minimum inhibitory concentration ([6]; Proteus mirabilis strain 3, Muller Hinton broth-cation adjusted) was greater than 128. For the same substance, the Minimum inhibitory concentration ([6]; Proteus mirabilis strain 4, Muller Hinton broth-cation adjusted) was 8, the Minimum inhibitory concentration ([6]; Proteus mirabilis strain 5, Muller Hinton broth-cation adjusted) was greater than 128 and the Minimum inhibitory concentration ([7]; Serratia marcescens strain 1, Muller Hinton broth-cation adjusted) was 1. For the same substance, the Minimum inhibitory concentration ([7]; Serratia marcescens strain 2, Muller Hinton broth-cation adjusted) was 2, the Minimum inhibitory concentration ([7]; Serratia marcescens strain 3, Muller Hinton broth-cation adjusted) was 1 and the Minimum inhibitory concentration ([7]; Serratia marcescens strain 4, Muller Hinton broth-cation adjusted) was 1. For the same substance, the Minimum inhibitory concentration ([7]; Serratia marcescens strain 5, Muller Hinton broth-cation adjusted) was 1, the Minimum inhibitory concentration ([8]; Escherichia coli strain 1) was 0.5 and the Minimum inhibitory concentration ([8]; Escherichia coli strain 2) was 0.5. It also gave a Minimum inhibitory concentration ([8]; Escherichia coli strain 3) of 1, a Minimum inhibitory concentration ([8]; Escherichia coli strain 4) of 1 and a Minimum inhibitory concentration ([8]; Escherichia coli strain 5) of 1. The Minimum inhibitory concentration ([9]; Staphylococcus aureus strain 1, Muller Hinton broth-cation adjusted) was 0.5, the Minimum inhibitory concentration ([9]; Staphylococcus aureus strain 2, Muller Hinton broth-cation adjusted) was 0.5 and the Minimum inhibitory concentration ([9]; Staphylococcus aureus strain 3, Muller Hinton broth-cation adjusted) was 0.5. The Minimum inhibitory concentration ([9]; Staphylococcus aureus strain 4, Muller Hinton broth-cation adjusted) was 0.5, the Minimum inhibitory concentration ([9]; Staphylococcus aureus strain 5, Muller Hinton broth-cation adjusted) was 0.5 and the Minimum inhibitory concentration ([10]; Pseudomonas aeruginosa strain 1, Muller Hinton broth-cation adjusted) was 1. It also gave a Minimum inhibitory concentration ([10]; Pseudomonas aeruginosa strain 2, Muller Hinton broth-cation adjusted) of 0.5, a Minimum inhibitory concentration ([10]; Pseudomonas aeruginosa strain 3, Muller Hinton broth-cation adjusted) of 0.5 and a Minimum inhibitory concentration ([10]; Pseudomonas aeruginosa strain 4, Muller Hinton broth-cation adjusted) of 0.5. The Minimum inhibitory concentration ([10]; Pseudomonas aeruginosa strain 5, Muller Hinton broth-cation adjusted) was 0.25.
